{
  "source": "patent US20250332178A1",
  "about": "“METHODS OF TREATING MYCOBACTERIAL INFECTIONS USING TETRACYCLINE COMPOUNDS” (priority 2018, published 2025)",
  "key": {"[1]": {"tested_on": "rapid-growing mycobacteria (RGM) isolates", "test": "MIC (CLSI broth dilution), all RGM isolates", "format": "cell-based, nontuberculous mycobacteria", "settings": "RGM clinical isolates, all species"}, "[2]": {"tested_on": "M. abscessus subsp. abscessus CIP 104536", "test": "MIC according to CLSI guidelines", "settings": "Mycobacteroides abscessus, CIP104536, read-out: Minimal Inhibitory Concentration (MIC)", "procedure": "Vials with M. abscessus suspensions were stored at −80° C. Cultures on solid medium were grown on Mueller Hinton II agar (BD), supplemented with 10% OADC and 0.5% glycerol for 10 days at 37° C. with 5% CO2."}, "[3]": {"tested_on": "Mycobacterium chelonae", "test": "MIC by broth microdilution in CAMHB, clinical isolates", "format": "cell-based", "settings": "22 clinical isolates; read-out: MIC50", "method": "(§1) A total of 24 clinical isolates of Mycobacterium abscessus, 22 clinical isolates of Mycobacterium chelonae and 20 clinical isolates of Mycobacterium fortuitum were tested in the study. The study also used the antibiotics tigecycline, doxycycline and amikacin for comparison purposes. […] Amikacin was dissolved in DMSO prior to freezing at −20° C. For susceptibility testing, stock solutions of antibiotic compounds were serially diluted in 50 μL of cation adjusted Mueller-Hinton broth (CAMHB) in polystryrene 96-well round-bottom microtiter plates. To each well, 50 μL of the appropriate mycobacterial cell suspension was added to yield a final concentration of about 1×10^5 CFU/mL. The inoculum used for each isolate was measured by titration in saline with Tween 80 and plating on MH agar. The Mycobacterium abscessus and Mycobacterium fortuitum titer plates were incubated at 37° C. in ambient air for 3-4 days and 5-7 days, respectively. The Mycobacterium chelonae titer plates were incubated at 30° C. in ambient air for 3-5 days. Each isolate was tested at least in duplicate. The MIC was defined as the lowest concentration of antimicrobial agent yielding no visible turbidity."}, "[4]": {"tested_on": "Mycobacterium abscessus", "test": "MIC by broth microdilution in CAMHB, clinical isolates", "format": "cell-based", "settings": "Mycobacteroides abscessus; for MIC: read-out: MIC", "method": "as §1"}, "[5]": {"tested_on": "Mycobacterium fortuitum", "test": "MIC by broth microdilution in CAMHB, clinical isolates", "format": "cell-based", "settings": "Mycolicibacterium fortuitum; for MIC: read-out: MIC", "method": "as §1"}},
  "note": "Like-named read-outs stand apart in the source and are kept apart here.",
  "data": [
    {"smiles": "CN(C)c1cc(CNCC(C)(C)C)c(O)c2c1C[C@H]1C[C@H]3C(N(C)C)C(O)=C(C(N)=O)C(=O)[C@@]3(O)C(O)=C1C2=O", "note": "(stereo partly drawn) [Omadacycline, (4aS,5aR,12aS)-4,7-bis(dimethylamino)-3,10,12,12a-tetrahydroxy-9-((neopentylamino)methyl)-1,11-dioxo-1,4,4a,5,5a,6,11,12a-octahydrotetracene-2-carboxamide]", "values": [
      {"measurement": "MIC50", "setting": "[1]; read-out: MIC50", "value": 0.25, "unit": "µg/mL"},
      {"measurement": "MIC90", "setting": "[1]; read-out: MIC90", "value": 0.5, "unit": "µg/mL"},
      {"measurement": "MIC", "setting": "[2]", "value": 4, "unit": "µg/mL"},
      {"measurement": "MIC50", "setting": "[3]", "value": 0.125, "unit": "µg/mL"},
      {"measurement": "MIC", "setting": "[4]; isolate No. 1, BB2", "value": 1, "unit": "µg/mL"},
      {"measurement": "MIC", "setting": "[4]; isolate No. 2, BB4", "value": 4, "unit": "µg/mL"},
      {"measurement": "MIC", "setting": "[4]; isolate No. 3, 5922", "value": 0.125, "unit": "µg/mL"},
      {"measurement": "MIC", "setting": "[4]; isolate No. 4, BB3", "value": 0.06, "unit": "µg/mL"},
      {"measurement": "MIC", "setting": "[4]; isolate No. 5, BB6", "value": 0.06, "unit": "µg/mL"},
      {"measurement": "MIC", "setting": "[4]; isolate No. 6, 5908", "value": 1, "unit": "µg/mL"},
      {"measurement": "MIC", "setting": "[4]; isolate No. 7, BB7", "value": 2, "unit": "µg/mL"},
      {"measurement": "MIC", "setting": "[4]; isolate No. 8, 6031", "value": 0.25, "unit": "µg/mL"},
      {"measurement": "MIC", "setting": "[4]; isolate No. 9, 5785", "value": 0.25, "unit": "µg/mL"},
      {"measurement": "MIC", "setting": "[4]; isolate No. 10, BB8", "value": 1, "unit": "µg/mL"},
      {"measurement": "MIC", "setting": "[4]; isolate No. 11, 6111", "value": 1, "unit": "µg/mL"},
      {"measurement": "MIC", "setting": "[4]; isolate No. 12, 6005", "value": 1, "unit": "µg/mL"},
      {"measurement": "MIC", "setting": "[4]; isolate No. 13, 5605", "value": 1, "unit": "µg/mL"},
      {"measurement": "MIC", "setting": "[4]; isolate No. 14, 5931", "value": 1, "unit": "µg/mL"},
      {"measurement": "MIC", "setting": "[4]; isolate No. 15, BB1", "value": 2, "unit": "µg/mL"},
      {"measurement": "MIC", "setting": "[4]; isolate No. 16, BB5", "value": 2, "unit": "µg/mL"},
      {"measurement": "MIC", "setting": "[4]; isolate No. 17, 5812", "value": 2, "unit": "µg/mL"},
      {"measurement": "MIC", "setting": "[4]; isolate No. 18, 5901", "value": 1, "unit": "µg/mL"},
      {"measurement": "MIC", "setting": "[4]; isolate No. 19, 5960", "value": 8, "unit": "µg/mL"},
      {"measurement": "MIC", "setting": "[4]; isolate No. 20, 6142", "value": 1, "unit": "µg/mL"},
      {"measurement": "MIC", "setting": "[4]; isolate No. 21, 5922", "value": 0.5, "unit": "µg/mL"},
      {"measurement": "MIC", "setting": "[4]; isolate No. 22, LT 949", "value": 1, "unit": "µg/mL"},
      {"measurement": "MIC", "setting": "[4]; isolate No. 23, 6025", "value": 1, "unit": "µg/mL"},
      {"measurement": "MIC", "setting": "[4]; isolate No. 24, 6153", "value": 2, "unit": "µg/mL"},
      {"measurement": "MIC50", "setting": "[4]; 24 clinical isolates (tigecycline: subset N=14), read-out: MIC50", "value": 1, "unit": "µg/mL"},
      {"measurement": "MIC90", "setting": "[4]; 24 clinical isolates (tigecycline: subset N=14), read-out: MIC90", "value": 2, "unit": "µg/mL"},
      {"measurement": "MIC", "setting": "[5]; isolate No. 1, 3349", "value": 0.25, "unit": "µg/mL"},
      {"measurement": "MIC", "setting": "[5]; isolate No. 2, 3499", "value": 0.03, "unit": "µg/mL"},
      {"measurement": "MIC", "setting": "[5]; isolate No. 3, 2797", "value": 0.125, "unit": "µg/mL"},
      {"measurement": "MIC", "setting": "[5]; isolate No. 4, 32", "value": 0.25, "unit": "µg/mL"},
      {"measurement": "MIC", "setting": "[5]; isolate No. 5, 33", "value": 0.125, "unit": "µg/mL"},
      {"measurement": "MIC", "setting": "[5]; isolate No. 6, 3489", "value": 0.125, "unit": "µg/mL"},
      {"measurement": "MIC", "setting": "[5]; isolate No. 7, 3491", "value": 0.125, "unit": "µg/mL"},
      {"measurement": "MIC", "setting": "[5]; isolate No. 8, 54", "value": 0.06, "unit": "µg/mL"},
      {"measurement": "MIC", "setting": "[5]; isolate No. 9, 38", "value": 0.125, "unit": "µg/mL"},
      {"measurement": "MIC", "setting": "[5]; isolate No. 10, 36", "value": 0.125, "unit": "µg/mL"},
      {"measurement": "MIC", "setting": "[5]; isolate No. 11, 3480", "value": 0.25, "unit": "µg/mL"},
      {"measurement": "MIC", "setting": "[5]; isolate No. 12, 3126", "value": 0.125, "unit": "µg/mL"},
      {"measurement": "MIC", "setting": "[5]; isolate No. 13, 3579", "value": 0.25, "unit": "µg/mL"},
      {"measurement": "MIC", "setting": "[5]; isolate No. 14, 7484", "value": 0.5, "unit": "µg/mL"},
      {"measurement": "MIC", "setting": "[5]; isolate No. 15, 3488", "value": 0.5, "unit": "µg/mL"},
      {"measurement": "MIC", "setting": "[5]; isolate No. 16, 3276", "value": 0.25, "unit": "µg/mL"},
      {"measurement": "MIC", "setting": "[5]; isolate No. 17, 3442", "value": 1, "unit": "µg/mL"},
      {"measurement": "MIC", "setting": "[5]; isolate No. 18, 3316", "value": 0.125, "unit": "µg/mL"},
      {"measurement": "MIC", "setting": "[5]; isolate No. 19, 3490", "value": 0.25, "unit": "µg/mL"},
      {"measurement": "MIC", "setting": "[5]; isolate No. 20, 2491", "value": 1, "unit": "µg/mL"},
      {"measurement": "MIC50", "setting": "[5]; 20 clinical isolates, read-out: MIC50", "value": 0.125, "unit": "µg/mL"},
      {"measurement": "MIC90", "setting": "[5]; 20 clinical isolates, read-out: MIC90", "value": 0.5, "unit": "µg/mL"}
    ]}
  ]
}
